According to patent EP4737450A1 (Longwood Pharmaceuticals (Hangzhou) Co., Ltd, priority 2023, dated 2025):
Like-named read-outs stand apart in the source and are kept apart here.

What was measured:
plasma kallikrein (PKa) = biological target: T1, plasma kallikrein (PKa) (Homo sapiens, UniProt P03952); experiment: Inhibitory activity against plasma kallikrein in vitro (fluorescence intensity enzyme assay, Pro-Phe-Arg-AMC substrate); type: biochemical; conditions: Pro-Phe-Arg-AMC substrate
T1 construct: purchased R & D 2497-SE
T1 sequence (P03952 391-638 limits assumed): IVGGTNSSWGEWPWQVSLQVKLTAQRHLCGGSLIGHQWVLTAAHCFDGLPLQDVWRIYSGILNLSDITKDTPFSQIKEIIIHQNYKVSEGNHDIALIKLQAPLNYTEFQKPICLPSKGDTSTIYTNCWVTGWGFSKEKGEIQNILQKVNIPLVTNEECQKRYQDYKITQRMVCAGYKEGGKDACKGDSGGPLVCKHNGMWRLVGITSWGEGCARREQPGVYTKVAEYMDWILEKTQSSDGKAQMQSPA
T1 sequence (P03952 20-390 partner limits assumed): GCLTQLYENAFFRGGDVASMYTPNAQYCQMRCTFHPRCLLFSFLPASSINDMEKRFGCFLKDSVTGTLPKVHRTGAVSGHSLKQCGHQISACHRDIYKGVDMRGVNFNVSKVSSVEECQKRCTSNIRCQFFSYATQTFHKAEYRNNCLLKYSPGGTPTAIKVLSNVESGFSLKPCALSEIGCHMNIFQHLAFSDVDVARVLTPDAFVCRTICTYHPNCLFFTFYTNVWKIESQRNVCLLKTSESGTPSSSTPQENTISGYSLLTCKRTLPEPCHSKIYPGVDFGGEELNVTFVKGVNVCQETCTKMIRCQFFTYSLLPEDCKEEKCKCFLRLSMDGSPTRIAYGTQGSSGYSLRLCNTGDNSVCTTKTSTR
How it was run: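 Fluorescence intensity enzyme assay with 10 nM enzyme and 60 µM Pro-Phe-Arg-AMC (final concentrations). Compounds in DMSO, tested in duplicate over a dose series. IC50 from nonlinear regression curve fitting.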

FXIa = FXIa (Homo sapiens, UniProt P03951); experiment: Inhibitory activity against FXIa in vitro (biochemical assay); conditions: values given in µM
FXIa, sequence (P03951 388-625 limits assumed): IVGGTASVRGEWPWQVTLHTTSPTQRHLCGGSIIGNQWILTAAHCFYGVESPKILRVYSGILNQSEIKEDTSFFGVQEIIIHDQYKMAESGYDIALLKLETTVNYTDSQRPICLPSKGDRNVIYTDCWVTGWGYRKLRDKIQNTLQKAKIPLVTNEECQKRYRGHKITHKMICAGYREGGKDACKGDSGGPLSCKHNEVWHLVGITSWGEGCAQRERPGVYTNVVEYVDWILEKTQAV
FXIa, sequence (P03951 19-387 partner limits assumed): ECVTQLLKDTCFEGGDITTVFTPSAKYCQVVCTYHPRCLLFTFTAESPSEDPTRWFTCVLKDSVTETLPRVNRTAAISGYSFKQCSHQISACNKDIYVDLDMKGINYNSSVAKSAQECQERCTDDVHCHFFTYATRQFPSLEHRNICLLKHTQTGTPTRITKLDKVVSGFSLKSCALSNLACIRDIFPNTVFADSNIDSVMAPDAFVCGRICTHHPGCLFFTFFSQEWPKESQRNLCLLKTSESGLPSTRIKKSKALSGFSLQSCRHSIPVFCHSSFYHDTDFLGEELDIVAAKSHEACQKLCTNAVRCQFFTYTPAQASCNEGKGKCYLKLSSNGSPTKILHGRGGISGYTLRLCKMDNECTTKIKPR
Protocol: Test Example 1. Test of the inhibitory activities of the compounds of the present invention against plasma kallikrein (PKa), KLK1 and FXIa in vitro.
PKK (R & D, Cat # 2497-SE) and Pro-Phe-Arg-AMC (Nanjing Peptide, Cat # NJP23946) solutions were prepared in reaction buffer (50 mM Tris-HCl, pH 7.5, 250 mM NaCl). The final concentrations of enzyme protein and Pro-Phe-Arg-AMC in the reaction mixture were 10 nM and 60 µM, respectively. The starting concentration of the positive reference substance Avoralstat was 100 nM, 3-fold dilution, 10 + 0 dose. 0.05 µL of compound in 100% DMSO was delivered to a 384-well plate by an acoustic liquid delivery technique (Echo665; nanoliter range). Compound duplex test. 5 µL of 2 × enzyme solution was transferred to a 384 reaction plate and centrifuged at 1000 rpm for 1 minute, incubated at 25°C for 15 minutes; 5 µL of 2 × Pro-Phe-Arg-AMC solution was transferred to a 384 reaction plate, centrifuged at 1000 rpm for 1 minute, incubated at 25°C for 3 hours. […] IC50 values and nonlinear regression curve fitting were obtained using GraphPad Prism software.

KLK1 = KLK1 (Homo sapiens, UniProt P06870); experiment: Inhibitory activity against KLK1 in vitro (biochemical assay); conditions: values given in µM
KLK1, sequence (P06870 25-262, species assumed): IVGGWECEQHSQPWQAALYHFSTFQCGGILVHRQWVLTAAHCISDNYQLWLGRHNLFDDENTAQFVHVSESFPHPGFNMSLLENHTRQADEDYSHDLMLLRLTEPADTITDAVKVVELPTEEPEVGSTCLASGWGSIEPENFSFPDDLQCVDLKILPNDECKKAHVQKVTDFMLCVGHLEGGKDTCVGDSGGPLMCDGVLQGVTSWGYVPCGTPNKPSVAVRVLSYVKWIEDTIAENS
Description: Test Example 1. Test of the inhibitory activities of the compounds of the present invention against plasma kallikrein (PKa), KLK1 and FXIa in vitro. […]

[1] = plasma kallikrein enzyme assay, read-out: PKa IC50

Cc1nc(N)c(C)c(C)c1CNC(=O)c1ncn(Cc2ccc(Cn3ccccc3=O)cc2)n1 [Compound 250] showed an IC50 (plasma kallikrein (PKa); [1]) of 1.9 nM, an IC50 (FXIa) of over 10 µM and an IC50 (KLK1) of over 10 µM.

With CCc1c(N)nc(C)c(CNC(=O)c2cnn(Cc3ccc(Cn4ccccc4=O)cc3)c2)c1C [Compound 253] the IC50 (plasma kallikrein (PKa); [1]) was 0.18 nM, the IC50 (FXIa) was over 10 µM and the IC50 (KLK1) was over 10 µM.

In the case of COc1cc(Cn2cc(C(=O)NCc3ccc(C(=N)N)cc3)cn2)ccc1CC1CC1 [Compound 255], the IC50 (plasma kallikrein (PKa); [1]) is reported as 2.35 nM, the IC50 (FXIa) is reported as over 10 µM and the IC50 (KLK1) is reported as over 10 µM.

Cc1nc(N)c(C)c(C)c1CNC(=O)c1cnn(Cc2ccc(Cn3ccccc3=O)cc2)c1 [Compound 256] showed an IC50 (plasma kallikrein (PKa); [1]) of 0.44 nM, an IC50 (FXIa) of over 10 µM and an IC50 (KLK1) of over 10 µM.

CCc1c(N)nc(C)c(CNC(=O)c2ncn(Cc3ccc(Cn4ccccc4=O)cc3)n2)c1C [Compound 257] gave an IC50 (plasma kallikrein (PKa); [1]) of 0.67 nM, an IC50 (FXIa) of over 10 µM and an IC50 (KLK1) of over 10 µM.

For N=C(N)c1ccc(CNC(=O)c2cnn(Cc3ccc(CC4CC4)c(F)c3)c2)cc1 [Compound 262], the IC50 (plasma kallikrein (PKa); [1]) was 2.67 nM, the IC50 (FXIa) was over 10 µM and the IC50 (KLK1) was over 10 µM.

COc1ccnc(CNC(=O)c2cn(Cc3ccc(Cn4ccccc4=O)cc3)nc2C2C(C)(C)C2(F)F)c1F (stereo not drawn) [Compound 263] showed an IC50 (plasma kallikrein (PKa); [1]) of 0.59 nM, an IC50 (FXIa) of over 10 µM and an IC50 (KLK1) of over 10 µM.

Work on CCOc1cc(Cn2cc(C(=O)NCc3ccc(C(=N)N)cc3)cn2)ccc1CC1CC1 [Compound 264] yielded an IC50 (plasma kallikrein (PKa); [1]) of 0.82 nM, an IC50 (FXIa) of over 10 µM and an IC50 (KLK1) of over 10 µM.

For N=C(N)c1ccc(CNC(=O)c2cnn(Cc3ccc(CC4CC4)cc3)c2)c(F)c1 [Compound 270], the IC50 (plasma kallikrein (PKa); [1]) was 0.18 nM, the IC50 (FXIa) was over 10 µM and the IC50 (KLK1) was over 10 µM.

Nc1ccnc(CNC(=O)c2cn(Cc3ccc(Cn4ccccc4=O)cc3)nc2C2COC2)c1F [Compound 274] showed an IC50 (plasma kallikrein (PKa); [1]) of 0.6 nM, an IC50 (FXIa) of over 10 µM and an IC50 (KLK1) of over 10 µM.

In the case of COc1ccc(Cl)c(CNC(=O)c2cn(Cc3ccc(Cn4ccccc4=O)cc3)nc2COCC2(F)COC2)c1F [Compound 289], the IC50 (plasma kallikrein (PKa); [1]) is reported as 2.31 nM, the IC50 (FXIa) is reported as over 10 µM and the IC50 (KLK1) is reported as over 10 µM.

For COc1ccnc(CNC(=O)c2cn(Cc3ccc(Cn4ccccc4=O)cc3)nc2N2CC(C)(O)C2)c1F [Compound 296], the IC50 (plasma kallikrein (PKa); PKa IC50, plasma kallikrein enzyme assay) was 2.22 nM, the IC50 (FXIa) was over 10 µM and the IC50 (KLK1) was over 10 µM.

CN(C)c1ccnc(CNC(=O)c2cn(Cc3ccc(Cn4ccccc4=O)cc3)nc2C2CC2(F)F)c1F (stereo not drawn) [Compound 310] gave an IC50 (plasma kallikrein (PKa); [1]) of 1.6 nM, an IC50 (FXIa) of over 10 µM and an IC50 (KLK1) of over 10 µM.

Work on Cc1cc(C(=N)N)cc(C)c1CNC(=O)c1cnn(Cc2ccc(Cn3ccccc3=O)cc2)c1 [Compound 314] yielded an IC50 (plasma kallikrein (PKa); [1]) of 0.32 nM, an IC50 (FXIa) of over 10 µM and an IC50 (KLK1) of over 10 µM.

In the case of N=C(N)c1ccc(CNC(=O)c2cnn(Cc3ccc(CC4CC4)cc3)c2)cc1F [Compound 321], the IC50 (plasma kallikrein (PKa); [1]) is reported as 2.71 nM, the IC50 (FXIa) is reported as over 10 µM and the IC50 (KLK1) is reported as over 10 µM.

Work on CN(C)c1ccnc(CNC(=O)c2cn(Cc3ccc(Cn4ccccc4=O)cc3)nc2C2COC2)c1F [Compound 335] yielded an IC50 (plasma kallikrein (PKa); [1]) of 1.92 nM, an IC50 (FXIa) of over 10 µM and an IC50 (KLK1) of over 10 µM.

With O=C(NCc1ncc2cc[nH]c2c1F)c1cn(Cc2ccc(Cn3ccccc3=O)cc2)nc1C1COC1 [Compound 337, N-((7-fluoro-1H-pyrrolo[3,2-c]pyridin-6-yl)methyl)-3-(oxetan-3-yl)-1-(4-((2-oxopyridin-1(2H)-yl)methyl)benzyl)-1H-pyrazole-4-carboxamide] the IC50 (plasma kallikrein (PKa); [1]) was 2.23 nM, the IC50 (FXIa) was over 10 µM and the IC50 (KLK1) was over 10 µM.

In the case of Cn1ccc2cnc(CNC(=O)c3cn(Cc4ccc(Cn5ccccc5=O)cc4)nc3C3COC3)c(F)c21 [Compound 338], the IC50 (plasma kallikrein (PKa); [1]) is reported as 1.38 nM, the IC50 (FXIa) is reported as over 10 µM and the IC50 (KLK1) is reported as over 10 µM.

N=C(N)c1ccc(CNC(=O)c2cnn(Cc3ccc(Cn4ccccc4=O)cc3)c2)c(F)c1 [Compound 341] was tested, and the IC50 (plasma kallikrein (PKa); [1]) was 0.07 nM, the IC50 (FXIa) was over 10 µM and the IC50 (KLK1) was over 10 µM.

With N=C(N)c1ccc(CNC(=O)c2cnn(Cc3cc(F)c(OCC4CC4)c(F)c3)c2)cc1 [Compound 345] the IC50 (plasma kallikrein (PKa); [1]) was 1.98 nM, the IC50 (FXIa) was over 10 µM and the IC50 (KLK1) was over 10 µM.

N=C(N)c1ccc(CNC(=O)c2cnn(Cc3c(Cl)cc(CC4CC4)cc3Cl)c2)cc1 [Compound 347] was tested, and the IC50 (plasma kallikrein (PKa); [1]) was 1.04 nM, the IC50 (FXIa) was over 10 µM and the IC50 (KLK1) was over 10 µM.
